Test results as given in patent publication US9050477B2, “Cosmetic compositions comprising oridonin and new cosmetic uses” (SEDERMA, priority 2009, dated 2015).

What was measured:
chorioallantoic membrane = assay: Anti-redness effect: Het-CAM method; details: 5000 ppm aspirin (positive control); SDS irritant; irritant alone 10 +/− 1.63
Description: b. Evaluation of the Anti-Redness Effect: Het-CAM Method The Het-CAM model is recommended as an alternative method for the evaluation of the irritant effect of cosmetics. The model uses eggs at a very early stage of development since the nervous system is not yet fully developed (JORF No. 300, Dec. 26, 1996). A moderately irritant product induces instantaneous changes in the capillary density of the chorioallantoic membrane. Previously invisible blood vessels become clearly visible under the effect of vasodilatation. This property was exploited to evaluate the effect of the combination of oridonin and darutoside. The combination oridonin+darutoside was applied to the surface of the chorioallantoic membrane and, after incubation, a surfactant, used as an SDS irritant agent, in an appropriate concentration, was applied to the surface of the membrane. A score was determined by an experienced operator and compared to that for the membranes exposed to the irritant alone (negative control) and that for the membranes exposed to aspirin, used as the positive control (JORF published method, modified).

[1] = Oxygen-Radical Absorbance Capacity (ORAC) test; format: biochemical; details: n = 6, vs control
Description: a. Reduction in Peroxyl Radicals: ORAC Test
The Oxygen-Radical Absorbance Capacity (ORAC) test is a method enabling evaluation of the antioxidant capability of molecules and extracts of plant origin. […] The free radical-induced […] of fluorescein decreases its fluorescence. The antioxidant molecules will reduce this degradation

G3PDH = assay: Slimming: G3PDH activity in differentiating human preadipocytes; format: cell-based; details: for Act G3PDH: 10 days of differentiation, control 220.2 +/− 32.8; for Act G3PDH % Change: vs control
Method: Human preadipocytes are cultured and induced to differentiate in the presence of oridonin. After 10 days of differentiation, G3PDH activity was measured in cell homogenates as a marker of differentiation. (n=4).

[2] = test system: reduced glutathione (GSH); assay: Stimulation of reduced glutathione (GSH) synthesis, ELISA; format: cell-based; details: human keratinocytes, 24 h
Method: c. Stimulation of Reduced Glutathione (GSH) Synthesis
Human keratinocytes at confluence are exposed 24 h to tested products. Intracellular GSH concentration was determined by ELISA.

Human melanocytes = assay: Melanogenesis of human melanocytes in monolayer (melanin content); format: cell-based; details: 5 days, n=4
Method: iii. Change in the Melanogenesis of Human Melanocytes in Monolayer
Human melanocytes were cultured and exposed with the test products for 5 days. After incubation the melanin content was measured in cell homogenates (n=4).

CC(=O)Oc1ccccc1C(=O)O [aspirin]
Mean score (inflammation index) (chorioallantoic membrane): 2 +/− 2.06

C=C1C(=O)[C@]23[C@H](O)[C@H]1CC[C@H]2[C@@]12CO[C@]3(O)[C@@H](O)[C@@H]1C(C)(C)CC[C@@H]2O [oridonin]
effect on the reduction of the destruction of fluorescein by free radicals ([1]; oridonin 1.5 ppm): +14%; p < 0.01
effect on the reduction of the destruction of fluorescein by free radicals ([1]; oridonin 3 ppm): +4%; dns
effect on the reduction of the destruction of fluorescein by free radicals ([1]; oridonin 4.5 ppm): −4%; dns
Act G3PDH (G3PDH; oridonin 2.7 ppm): 162.1 +/− 31.4 mU/10^6 cell
Act G3PDH % Change (G3PDH; oridonin 2.7 ppm): −26%; p < 0.05
Act G3PDH (G3PDH; oridonin 3.6 ppm): 127.7 +/− 19.2 mU/10^6 cell
Act G3PDH % Change (G3PDH; oridonin 3.6 ppm): −42%; p < 0.01
GSH change as % of control ([2]; oridonin 3 ppm): +41%; p < 0.01
GSH change as % of control ([2]; oridonin 4.5 ppm): +79%; p < 0.01
% Change/control (melanin content) (Human melanocytes; oridonin alone, 2.25 ppm): −23%; p < 0.01
% Change/control (melanin content) (Human melanocytes; oridonin alone, 3 ppm): −34%; p < 0.01
% Change/control (melanin content) (Human melanocytes; oridonin alone, 5 ppm (so in the source)): −21%; p < 0.01
% Change/control (melanin content) (Human melanocytes; oridonin alone, 125 ppm (so in the source)): −16%; p < 0.01

darutoside
GSH change as % of control ([2]; darutoside 10 ppm): +3%; dns
GSH change as % of control ([2]; darutoside 15 ppm): +2%; dns
% Change/control (melanin content) (Human melanocytes; darutoside alone, 3.75 ppm): +1%; dns
% Change/control (melanin content) (Human melanocytes; darutoside alone, 5 ppm): +2%; dns
% Change/control (melanin content) (Human melanocytes; darutoside alone, 7.5 ppm): −4%; dns
% Change/control (melanin content) (Human melanocytes; darutoside alone, 10 ppm): −7%; p < 0.05
